# Results: patent US20110319424A1, “NAPHTHYRIDIN-2(1H) -ONE COMPOUNDS USEFUL AS ANTIBACTERIALS” (priority 2008, published 2011)
# System: Mycobacterium tuberculosis H37Rv
# Test: Mycobacterium tuberculosis H37Rv inhibition assay (MIC, resazurin fluorescence)
# Type: cell-based
# Conditions: ATCC 25618 / H37Rv, 144 h, H37Rv strain (ATCC25618), Middlebrook 7H9, six days at 37° C. then resazurin 48 hours
row,SMILES,MIC [µg/mL]
1,"O=c1ccc2ncc(F)cc2n1CCN1CCC(NCc2ccc(Br)cn2)CC1 [Example 1, 1-[2-(4-{[(5-Bromo-2-pyridinyl)methyl]amino}-1-piperidinyl)ethyl]-7-fluoro-1,5-naphthyridin-2(1H)-one]",≤ 1
2,"Cl.Cl.O=c1ccc2ncc(F)cc2n1CCN1CCC(NCc2ccc(Br)cn2)CC1 [Example 1b, 1-[2-(4-{[(5-Bromo-2-pyridinyl)methyl]amino}-1-piperidinyl)ethyl]-7-fluoro-1,5-napthyridin-2(1H)-one dihydrochloride]",≤ 1
3,"COc1cnc2ccc(=O)n(CCN3CCC(NCc4cnc(Br)s4)CC3)c2c1 [Example 2, 1-[2-(4-{[(2-Bromo-1,3-thiazol-5-yl)methyl]amino}-1-piperidinyl)ethyl]-7-(methyloxy)-1,5-naphthyridin-2(1H)-one]",≤ 1
4,"COc1cnc2ccc(=O)n(CCN3CCC(NCc4cnc(Br)s4)CC3)c2c1.Cl [Example 2b, 1-[2-(4-{[(2-Bromo-1,3-thiazol-5-yl)methyl]amino}-1-piperidinyl)ethyl]-7-(methyloxy)-1,5-naphthyridin-2(1H)-one hydrochloride]",≤ 1
5,"O=c1ccc2ncc(F)cc2n1CCN1CCC(NCc2ccc(Cl)c(Cl)c2)CC1 [Example 3, 1-[2-(4-{[(3,4-Dichlorophenyl)methyl]amino}-1-piperidinyl)ethyl]-7-fluoro-1,5-naphthyridin-2(1H)-one]",≤ 1
6,"Cl.Cl.O=c1ccc2ncc(F)cc2n1CCN1CCC(NCc2ccc(Cl)c(Cl)c2)CC1 [Example 3b, 1-[2-(4-{[(3,4-Dichlorophenyl)methyl]amino}-1-piperidinyl)ethyl]-7-fluoro-1,5-naphthyridin-2(1H)-one dihydrochloride]",≤ 1
7,"COc1cnc2ccc(=O)n(CCN3CCC(NCc4ccc(C(F)(F)F)nc4)CC3)c2c1 [Example 4, 7-(Methyloxy)-1-{2-[4-({[6-(trifluoromethyl)-3-pyridinyl]methyl}amino)-1-piperidinyl]ethyl}-1,5-naphthyridin-2(1H)-one]",≤ 1
8,"COc1cnc2ccc(=O)n(CCN3CCC(NCc4ccc(C(F)(F)F)nc4)CC3)c2c1.Cl [Example 4b, 7-(Methyloxy)-1-{2-[4-({[6-(trifluoromethyl)-3-pyridinyl]methyl}amino)-1-piperidinyl]ethyl}-1,5-naphthyridin-2(1H)-one hydrochloride]",≤ 1
9,"COc1cnc2ccc(=O)n(CCN3CCC(NCc4nc(C)c(C)s4)CC3)c2c1 [Example 6, 1-[2-(4-{[(4,5-Dimethyl-1,3-thiazol-2-yl)methyl]amino}-1-piperidinyl)ethyl]-7-(methyloxy)-1,5-naphthyridin-2(1H)-one]",≤ 2.4
10,"O=c1ccc2ncccc2n1CCN1CCC(NCc2ccc(Cl)c(Cl)c2)CC1 [Example 8, 1-[2-(4-{[(3,4-Dichlorophenyl)methyl]amino}-1-piperidinyl)ethyl]-1,5-naphthyridin-2(1H)-one]",≤ 1
11,"Cl.Cl.O=c1ccc2ncccc2n1CCN1CCC(NCc2ccc(Cl)c(Cl)c2)CC1 [Example 8b, 1-[2-(4-{[(3,4-Dichlorophenyl)methyl]amino}-1-piperidinyl)ethyl]-1,5-naphthyridin-2(1H)-one dihydrochloride]",≤ 1
12,"O=c1ccc2ncccc2n1CCN1CCC(NCc2ccc(Br)nc2)CC1 [Example 9, 1-[2-(4-{[(6-Bromo-3-pyridinyl)methyl]amino}-1-piperidinyl)ethyl]-1,5-naphthyridin-2(1H)-one]",≤ 2.4
13,"COc1cnc2ccc(=O)n(CCN3CCC(NCc4ccc(Cl)c(Cl)c4)CC3)c2c1 [Example 11, 1-[2-(4-{[(3,4-Dichlorophenyl)methyl]amino}-1-piperidinyl)ethyl]-7-(methyloxy)-1,5-naphthyridin-2(1H)-one]",≤ 1
14,"COc1cnc2ccc(=O)n(CCN3CCC(NCc4ccc(Cl)c(Cl)c4)CC3)c2c1.Cl [Example 11b, 1-[2-(4-{[(3,4-Dichlorophenyl)methyl]amino}-1-piperidinyl)ethyl]-7-(methyloxy)-1,5-naphthyridin-2(1H)-one hydrochloride]",≤ 1
15,"COc1cnc2ccc(=O)n(CCN3CCC(NCc4ccc(Cl)c(Cl)c4)CC3)c2c1.Cl.Cl [Example 11c, 1-[2-(4-{[(3,4-Dichlorophenyl)methyl]amino}-1-piperidinyl)ethyl]-7-(methyloxy)-1,5-naphthyridin-2(1H)-one dihvdrochloride]",≤ 1
16,"COc1cnc2ccc(=O)n(CCN3CCC(NCc4ccc(Cl)cc4)CC3)c2c1 [Example 12, 1-[2-(4-{[(4-Chlorophenyl)methyl]amino}-1-piperidinyl)ethyl]-7-(methyloxy)-1,5-naphthyridin-2(1H)-one]",≤ 1
17,"COc1cnc2ccc(=O)n(CCN3CCC(NCc4ccc(Cl)cc4)CC3)c2c1.Cl.Cl [Example 12b, 1-[2-(4-{[(4-Chlorophenyl)methyl]amino}-1-piperidinyl)ethyl]-7-(methyloxy)-1,5-naphthyridin-2(1H)-one dihydrochloride]",≤ 1
18,"COc1cnc2ccc(=O)n(CCN3CCC(NCc4ccc(Cl)cc4)CC3)c2c1.Cl [Example 12c, 1-[2-(4-{[(4-Chlorophenyl)methyl]amino}-1-piperidinyl)ethyl]-7-(methyloxy)-1,5-naphthyridin-2(1H)-one hydrochloride]",≤ 1
19,"O=c1ccc2ncc(F)cc2n1CCN1CCC(NCc2ccc(Br)o2)CC1 [Example 34, 1-[2-(4-{[(5-bromo-2-furanyl)methyl]amino}-1-piperidinyl)ethyl]-7-fluoro-1,5-naphthyridin-2(1H)-one]",≤ 2.4
20,"O=c1ccc2ncc(F)cc2n1CCN1CCC(NCc2cc(Cl)ccc2Cl)CC1 [Example 38, 1-[2-(4-{[(2,5-dichlorophenyl)methyl]amino}-1-piperidinyl)ethyl]-7-fluoro-1,5-naphthyridin-2(1H)-one]",≤ 2.4
21,"O=c1ccc2ncccc2n1CCN1CCC(NCc2ccc(Br)s2)CC1 [Example 48, 1-[2-(4-{[(5-bromo-2-thienyl)methyl]amino}-1-piperidinyl)ethyl]-1,5-naphthyridin-2(1H)-one]",≤ 2.4
22,"O=c1ccc2ncccc2n1CCN1CCC(NCc2cnc(Br)s2)CC1 [Example 49, 1-[2-(4-{[(2-bromo-1,3-thiazol-5-yl)methyl]amino}-1-piperidinyl)ethyl]-1,5-naphthyridin-2(1H)-one]",≤ 2.4
23,"COc1ccc(CNC2CCN(CCn3c(=O)ccc4ncccc43)CC2)cc1Cl [Example 51, 1-{2-[4-({[3-chloro-4-(methyloxy)phenyl]methyl}amino)-1-piperidinyl]ethyl}-1,5-naphthyridin-2(1H)-one]",≤ 2.4
24,"COc1cnc2ccc(=O)n(CCN3CCC(NCc4nc(Br)cs4)CC3)c2c1 [Example 64, 1-[2-(4-{[(4-bromo-1,3-thiazol-2-yl)methyl]amino}-1-piperidinyl)ethyl]-7-(methyloxy)-1,5-naphthyridin-2(1H)-one]",≤ 2.4
25,"COc1cnc2ccc(=O)n(CCN3CCC(NCc4ccc(F)c(C)n4)CC3)c2c1 [Example 68, 1-[2-(4-{[(5-fluoro-6-methyl-2-pyridinyl)methyl]amino}-1-piperidinyl)ethyl]-7-(methyloxy)-1,5-naphthyridin-2(1H)-one]",≤ 2.4
26,"O=c1ccc2ncccc2n1CCN1CCC(NCc2cc(Br)cs2)CC1 [Example 81, 1-[2-(4-{[(4-bromo-2-thienyl)methyl]amino}-1-piperidinyl)ethyl]-1,5-naphthyridin-2(1H)-one]",≤ 2.4
